Experimental data from ChEMBL document CHEMBL1201862, “PubChem BioAssay data set” (2004).
Calls of active or inactive are those of the source. Rule as the data show it: actives have a measured IC50 and inactives only a lower limit.

Molecular target: Envelope glycoprotein gp160 (Human immunodeficiency virus 1, UniProt Q6QLK5)
Test: inhibitors of HIV fusion peptide binding, primary screen, biochemical, uHTS, fluorescence dequenching (AID 1986)

Envelope glycoprotein gp160, sequence (Q6QLK5 whole entry, the tested form may be a part): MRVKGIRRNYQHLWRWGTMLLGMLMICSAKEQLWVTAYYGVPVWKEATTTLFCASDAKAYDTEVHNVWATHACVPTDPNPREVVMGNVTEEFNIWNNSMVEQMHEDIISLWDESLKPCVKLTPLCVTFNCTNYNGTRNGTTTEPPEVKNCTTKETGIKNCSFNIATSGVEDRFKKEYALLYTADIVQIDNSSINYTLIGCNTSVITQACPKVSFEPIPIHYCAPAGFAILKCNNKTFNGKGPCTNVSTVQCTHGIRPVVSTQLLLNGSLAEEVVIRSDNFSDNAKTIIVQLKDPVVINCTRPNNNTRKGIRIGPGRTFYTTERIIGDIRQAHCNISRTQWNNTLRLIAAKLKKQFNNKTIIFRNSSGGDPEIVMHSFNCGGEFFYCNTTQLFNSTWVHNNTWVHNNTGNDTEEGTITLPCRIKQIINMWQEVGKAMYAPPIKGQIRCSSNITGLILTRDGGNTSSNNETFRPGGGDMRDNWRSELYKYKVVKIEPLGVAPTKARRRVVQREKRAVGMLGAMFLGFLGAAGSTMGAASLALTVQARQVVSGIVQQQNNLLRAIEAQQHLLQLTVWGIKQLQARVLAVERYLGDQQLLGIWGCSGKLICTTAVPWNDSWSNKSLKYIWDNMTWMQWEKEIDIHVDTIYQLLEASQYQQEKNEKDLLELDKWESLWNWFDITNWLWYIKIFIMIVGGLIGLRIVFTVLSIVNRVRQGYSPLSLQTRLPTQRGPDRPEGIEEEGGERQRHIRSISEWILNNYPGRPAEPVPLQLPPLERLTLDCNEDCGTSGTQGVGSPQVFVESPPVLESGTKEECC

SMILES | IC50
O=C(O)CN1C(=O)/C(=C\c2cccc(OCc3ccc(Cl)cc3Cl)c2)SC1=S | 13.1 µM (active)
O=C(O)c1ccccc1NS(=O)(=O)c1ccc(NNC(=S)Nc2ccc(OC(F)F)cc2)c([N+](=O)[O-])c1 | 8.21 µM (active)
